This note sets out measurements from publication PMC4128063, “Investigating G protein signalling bias at the glucagon-like peptide-1 receptor in yeast” (British Journal of Pharmacology, 2014).

Like-named read-outs stand apart in the source and are kept apart here.

Holding throughout (format): cell-based
Assay [1] concerns the target GLP-1 receptor (GPA1/Gαi chimera) (Homo sapiens, UniProt P43220). The assay can be described thus: Yeast growth assay, GPA1/Gαi chimera strain expressing the GLP-1 receptor.
Assay [2] concerns the target GLP-1 receptor (Homo sapiens, UniProt P43220). In words: G protein signalling bias, GPA1/Gαs versus GPA1/Gαi, yeast assays. The settings on record: normalized responses at equivalent ligand concentrations.
Experimental: The strains used contain the HIS3 gene under the control of the pheromone-responsive FUS3 promoter. Receptor agonism induces expression of the reporter gene enabling growth in media lacking histidine (-HIS). […] Initially, cells were grown for 24 h in SD media lacking uracil (-URA) at 30°C to select for only those expressing the receptor. […] Finally, the cultures were diluted in SD-URA-HIS media, supplemented with FDGlu at a final concentration of 20 μM, to an OD600 of 0.02. […] Different concentrations of ligands (0.01 nM–100 mM) were added and yeast growth was measured using either a TECAN Infinite M200 microplate reader (TECAN Ultra Evolution, Reading, UK) or a Mithras LB940 microplate reader (Berthold Technologies, Harpenden, UK) for 20 h.
Data were analysed using Prism 6.0c (Graphpad Software, San Diego, CA, USA). Concentration-response curves were fitted using the three-parameter logistic equation to obtain EC50 and Emax values. […] Statistical differences were analysed using one-way ANOVA with Bonferroni's or Dunnett's multiple comparisons or Student's test as appropriate and a probability (P) < 0.05 was considered significant.
The target in assay [3] is GLP-1 receptor (GPA1/Gαs chimera) (Homo sapiens, UniProt P43220). In words: Yeast growth assay, GPA1/Gαs chimera strain expressing the GLP-1 receptor.
Sequence of GLP-1 receptor (GPA1/Gαs chimera) (P43220 24-463, change not shown): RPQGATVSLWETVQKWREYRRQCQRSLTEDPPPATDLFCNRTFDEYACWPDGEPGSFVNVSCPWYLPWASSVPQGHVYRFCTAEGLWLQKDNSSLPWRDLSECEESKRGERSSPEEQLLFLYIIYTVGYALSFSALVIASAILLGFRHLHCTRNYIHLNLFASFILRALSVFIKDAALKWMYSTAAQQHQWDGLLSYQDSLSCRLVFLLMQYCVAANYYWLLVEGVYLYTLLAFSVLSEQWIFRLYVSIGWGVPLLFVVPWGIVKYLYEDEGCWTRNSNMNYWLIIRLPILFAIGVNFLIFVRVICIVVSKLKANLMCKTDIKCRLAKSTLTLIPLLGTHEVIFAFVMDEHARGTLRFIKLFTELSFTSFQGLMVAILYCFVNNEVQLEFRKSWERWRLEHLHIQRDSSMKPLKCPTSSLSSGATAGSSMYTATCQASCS
The mark [4] stands for this setting: yeast, 20 h, percentage of the maximum response achieved through activation of GPA1/Gαs, mean ± SEM, n = 5, SEM.
Setting [5] is: yeast, 20 h, three-parameter logistic fit, mean ± SEM, n = 5, SEM.

Sequence of GLP-1 receptor (GPA1/Gαi chimera) (P43220 24-463, change not shown): as above
Sequence of GLP-1 receptor (P43220 24-463): as the sequence (P43220 24-463, change not shown) above

For `CC[S+]([O-])c1nc(-c2cccc(OCc3ccccc3)c2)cc(C(F)(F)F)n1` (centres unmarked) [BETP, 4-(3-benzyloxyphenyl)-2-ethylsulfinyl-6-(trifluoromethyl) pyrimidine], the EC50 in assay [1] (pEC50 (GLP-1 receptor, GPA1/Gαi), non-peptide agonists, yeast, 20 h, three-parameter logistic fit, mean ± SEM, n = 5, SEM) was 15.8 nM; in assay [1] (value quoted in running text, read-out: EC50 (yeast, GPA1/Gαi)), 15 nM; in assay [3] (pEC50 (GLP-1 receptor, GPA1/Gαs), non-peptide agonists, yeast, 20 h, three-parameter logistic fit, mean ± SEM, n = 5, SEM), 7.94 nM; in assay [3] (value quoted in running text, read-out: EC50 (yeast, GPA1/Gαs)) it was 10 nM. For the same molecule, the Emax in assay [1] (read-out: Emax (GLP-1 receptor, GPA1/Gαi), non-peptide agonists, yeast, 20 h, percentage of the maximum response achieved through activation of GPA1/Gαs, mean ± SEM, n = 5, SEM) is 96.5 ± 4.3%; in assay [3] (read-out: Emax (GLP-1 receptor, non-peptide agonists), yeast, 20 h, percentage of the maximum response achieved through activation of GPA1/Gαs, mean ± SEM, n = 5, SEM), 100 ± 5.1%. Further, the “Equimolar bias plot, GPA1/Gαs versus GPA1/Gαi” value in assay [2] is “did not deviate from the no-bias line of unity”.

Turning to `CC(C)(C)Nc1nc2cc(Cl)c(Cl)cc2nc1S(C)(=O)=O` [Compound 2, 6,7-dichloro-2-methylsulfonyl-3-N-tert-butylaminoquinoxaline], in assay [1] (setting [4]), the “Emax (GLP-1 receptor, GPA1/Gαi), non-peptide agonists” value is recorded as 67.5 ± 7.3 %. Moreover, the “pEC50 (GLP-1 receptor, GPA1/Gαi), non-peptide agonists” value in assay [1] (setting [5]) was determined as 8.5 ± 0.3. In addition, the “Emax (GLP-1 receptor, GPA1/Gαs), non-peptide agonists” value in assay [3] (setting [4]) came out at 100 ± 7.3%. The “pEC50 (GLP-1 receptor, GPA1/Gαs), non-peptide agonists” value in assay [3] (setting [5]) is reported as 8.6 ± 0.2.
